# Results as given in patent US20080287396A1, “Phosphonated Fluoroquinolones, Antibacterial Analogs Thereof, and Methods for the Prevention and Treatment of Bone and Joint Infections” (TARGANTA THERAPEUTICA INC., priority 2005, published 2008).
# Columns and labels:
# Hela cells = experiment: Cytotoxicity assay (MTS reduction); type: cell-based; conditions: concentrations up to 100 μM, 18 h, MTS reagent; data not shown
# Experimental: Selected compounds were also tested for their ability to inhibit growth of mammalian cells so as to ascertain levels of cytotoxicity to the mammalian host, via an assay measuring the biological reduction of the inner salt of (3-(4,5-dimethylthiazol-2-yl)-5-(3-carboxymethoxyphenyl)-2-(4-sulfophenyl)-2H-tetrazolium (MTS reagent). Assays were performed in 96-well microtiter plates. Briefly, compounds at 100, 50, 25, and 12.5 μM concentrations were incubated with 2×10^4 Hela cells per well in Dulbecco's Modified Eagle Medium (Invitrogen Corporation) containing 1% Bovine Growth Serum (HyClone) for 18 h at 37° C. under 5% CO2.
# [1] = Bone powder binding, fluorometric detection; conditions: 1 mg/ml compound, bone meal powder 10 mg/ml in PBS, 37° C., 1 h
# Experimental: The ability of the example molecules to bind to bone powder was established in two parallel fashions, using either LC/MS or fluorometric detection. For LC/MS detection, a stock solution (5 mM) of the compound to be tested was added to 0.1M Tris-HCl buffer pH 7, 0.15M NaCl to reach a final concentration of 100 μM. Triplicate samples (1 mL) of the compound solutions were intensively shaken for 10 min with or without 25 mg of fresh or 20 mg of vacuum dried ground rat tibia bone. The samples were then centrifuged for 15 min at 10 000 g. The presence of unbound compound was measured by injection of 30 μL of each of the supernatants into an Agilent 1100™ LC/UV system. For fluorometric detection, an individual compound was dissolved in PBS or water (compound 52) and resuspended at a concentration of 1 mg/ml in a slurry of bone meal powder (Now Foods, Bloomingdale, Ill., USA) in PBS at 10 mg/ml. The suspension of drug/prodrug in bone meal powder was incubated at 37° C. for 1 h to allow for binding, and centrifuged at 13 000 rpm for 2 min, before recovering the supernatant. The bone meal powder pellet was then washed three times with 1 ml of PBS. All supernatants were saved and assessed for fluoroquinolone content by fluorescence measurements at excitation/emission wavelengths of 280/465 nm. The amount of fluoroquinolone was determined from standard curves generated for each experiment. Amount of drug/prodrug bound to bone powder was deduced from the difference between the input amount (typically 1 mg) and the amount recovered in the supernatants after binding. In all binding experiments, >99% of input drug was recovered in the supernatant for the parent drugs.
# [2] = Regeneration of drug from bone powder-bound prodrug; type: in vitro ADME; conditions: for drug released from the bone matter after 24 h, in words / drug released from the bone matter after 7 days of incubation, in words: medium not stated; for effect of the medium (presence or absence of serum) on regeneration rate: PBS vs serum
# Experimental: Amounts of drug “regenerated” from the phosphonated parent prodrug were measured as follows. Washed bone powder-bound prodrugs from the above section were resuspended in 400 μL PBS or in 400 μL 50% (v/v in PBS) human or rat serum. […] Methanol (5× volume relative to supernatant) was added to each supernatant and the mixture was vortexed on a floor model vortex for 15 min to extract freed fluoroquinolone. The mixture was then centrifuged at 10 000 rpm for 15 min to pellet the insoluble material. The supernatant containing the extracted fluoroquinolone was recovered and evaporated to dryness in a speed vac. The dried pellets were resuspended in PBS and the amount of fluoroquinolone was determined by fluorescence measurements as described above. The percentage of drug regenerated was deduced from the difference between amount of bound prodrug and the amount of regenerated drug. The identity of regenerated drug was deduced by MIC determination; MICs of regenerated material matched those of parent drugs but not those of prodrugs.
# S. aureus ATCC 13709 = experiment: Prophylactic model of bone infection in rats; type: in vivo, rat
# Experimental: To determine the activity in vivo of bisphosphonated prodrugs of fluoroquinolones, compounds 52 and 107, derivatives of parent compounds moxifloxacin 3 (for 52), and compounds 39, 44, 49, 54, 121, 129, 141, 145, 149, derivatives of parent compound gatifloxacin 15, were used in a prophylactic model for infection. Specifically, S. aureus ATCC 13709 cells were grown overnight at 37° C. in brain heart infusion broth (BHIB). Cells were subcultured into fresh BHIB and incubated for 4 to 5 h at 37° C. The cells were washed twice with phosphate-buffered saline (PBS) and resuspended in BHIB supplemented with 10% (vol./vol.) fetal bovine serum at a density of approximately 10^10 colony forming units (CFU)/ml (based upon turbidimetry). The suspension was aliquoted and a portion was used to check the CFU count. The culture was stored frozen (−80° C.) and was used without subculture. For use as an inoculum the culture was thawed, diluted in PBS and kept in an ice bath until it was used.
# Animals were infected as described by O'Reilly et al. (Antimicrobial Agents and Chemotherapy (1992), 36(12): 2693-97) to generate the bone infection. Female CD rats (age, 57 to 70 days; n=5/group; Charles River, St-Constant, Canada) were anaesthetized by isofluorane before and during the surgery. Following complete induction of anesthesia, the rat was placed ventral side up and hair was shaved from the surgical site. The skin over the leg was cleaned and disinfected (proviodine-ethanol 70%). A longitudinal incision below the knee joint was made in the sagital plane. The incision was made over the bone below the “knee joint” (tibia head or condyle) but not completely extending to the ankle. A high speed drill fitted with a 2 mm bulb bit was used to drill a hole into the medullar cavity of the tibia. Rats were injected intra-tibially with 0.05 ml 5% sodium morrhuate (sclerosing agent) and then with 0.05 ml of S. aureus suspension (ca. 5×10^5 CFU/rat). The hole was sealed by applying a small amount of dry dental cement which immediately absorbs fluids and adheres to the site. The wound was closed using 3 metal skin clips. Moxifloxacin 3 (as a positive control) was injected once at 10 mg/kg intravenously 1 h postinfection in saline, while the fluoroquinolone prodrugs (prepared in 0.9% saline) were injected as a single intravenous bolus dose at different time points prior to the infection. For comparison, the parent drug (moxifloxacin 3 or gatifloxacin 15) was also injected intravenously once at a molar equivalent dose at the same time point prior the infection.
# Infected rats were sacrificed by CO2 asphyxiation 24 h postinfection to monitor the bacterial CFU count. Infected tibiae were removed, dissected free of soft tissue, and weighed. The bones were ground using a metal ball mill, resuspended in 5 ml 0.9% NaCl, serially diluted and processed for quantitative cultures. For compounds 39, 44, 49, 54, 141, 145, 149, 1 ml of the 0.9% NaCl solution was added to 50 mg of charcoal before serial dilutions. Treatment efficacies were measured in terms of Log viable bacteria (Log CFU per gram of bone). The results obtained for each group of rats were evaluated by calculating the mean Log CFU and standard deviation. The limit of detection is 2 Log CFU/g of bone. Statistical comparisons of viable bacterial counts for the different treated and untreated groups were performed with Dunnett's multiple-comparison test. Differences were considered significant when the P value was <0.05 when comparing treated infected animals to the untreated infected ones.
Compound,Binding to bone (%) Fluorescence [1] [%],cytotoxicity (Hela cells),other results
"COc1c(N2C[C@@H]3CCCN(CC(P(=O)(OC)OC)P(=O)(OC)OC)[C@@H]3C2)c(F)cc2c(=O)c(C(=O)O)cn(C3CC3)c12 [Compound 4, 7-((4aS,7aS)-1-(2,2-bis(dimethylphosphono)ethyl)-octahydropyrrolo[3,4-b]pyridin-6-yl)-1-cyclopropyl-6-fluoro-1,4-dihydro-8-methoxy-4-oxoquinoline-3-carboxylic acid]",,no signs of any cytotoxicity,
"COc1c(N2C[C@@H]3CCCN(CC(P(=O)(O)O)P(=O)(O)O)[C@@H]3C2)c(F)cc2c(=O)c(C(=O)O)cn(C3CC3)c12 [Compound 5, 7-((4aS,7aS)-1-(2,2-bisphosphonoethyl)-octahydropyrrolo[3,4-b]pyridin-6-yl)-1-cyclopropyl-6-fluoro-1,4-dihydro-8-methoxy-4-oxoquinoline-3-carboxylic acid]",92.2,no signs of any cytotoxicity,"drug released from the bone matter after 24 h, in words [2]: not measurable amount of drug released; drug released from the bone matter after 7 days of incubation, in words [2]: only trace amounts"
"COP(=O)(OC)C(CN1CCN(c2cc3c(cc2F)c(=O)c(C(=O)O)cn3C2CC2)CC1)P(=O)(OC)OC [Compound 7, 7-(4-(2,2-bis(dimethylphosphono)ethyl)piperazin-1-yl)-1-cyclopropyl-6-fluoro-1,4-dihydro-4-oxoquinoline-3-carboxylic acid]",,no signs of any cytotoxicity,
"CCOP(=O)(OCC)C(NC(=O)COC(=O)c1cn(C2CC2)c2c(OC)c(N3CCN(C(=O)OC(C)(C)C)C(C)C3)c(F)cc2c1=O)P(=O)(OCC)OCC (stereo not shown) [Compound 53, (1,1-Bis(diethylphosphono)methylcarbamoyl)methyl 7-(4-(tert-butoxycarbonyl)-3-methylpiperazin-1-yl)-1-cyclopropyl-6-fluoro-1,4-dihydro-8-methoxy-4-oxoquinoline-3-carboxylate]",,no signs of any cytotoxicity,
"COC(=O)c1cn(C2CC2)c2c(OC)c(N3C[C@@H]4CCCN[C@@H]4C3)c(F)cc2c1=O [Compound 154, Methyl 1-cyclopropyl-6-fluoro-1,4-dihydro-7-((4aS,7aS)-octahydropyrrolo[3,4-b]pyridin-6-yl)-8-methoxy-4-oxoquinoline-3-carboxylate]",,no signs of any cytotoxicity,

# Continued, in another order:
Binding to bone (%) Fluorescence [1] [%],Compound,cytotoxicity (Hela cells),other results
99.6,"O=C(O)c1cn(C2CC2)c2cc(N3CCN(CC(P(=O)(O)O)P(=O)(O)O)CC3)c(F)cc2c1=O [Compound 8, 7-(4-(2,2-bisphosphonoethyl)piperazin-1-yl)-1-cyclopropyl-6-fluoro-1,4-dihydro-4-oxoquinoline-3-carboxylic acid]",no signs of any cytotoxicity,"drug released from the bone matter after 24 h, in words [2]: not measurable amount of drug released"
93.8,"COc1c(N2C[C@@H]3CCCN[C@@H]3C2)c(F)cc2c(=O)c(C(=O)OCCCC(P(=O)(O)O)P(=O)(O)O)cn(C3CC3)c12 [Compound 14, 4,4-bisphosphonobutyl 7-((4aS,7aS)-octahydropyrrolo[3,4-b]pyridin-6-yl)-1-cyclopropyl-6-fluoro-1,4-dihydro-8-methoxy-4-oxoquinoline-3-carboxylate]",no signs of any cytotoxicity,"drug released from the bone matter after 7 days of incubation, in words [2]: signs of drug release"
94.3,COc1c(N2CCN(C(=O)OC(C)OC(=O)CCCC(=O)NC(P(=O)(O)O)P(=O)(O)O)C(C)C2)c(F)cc2c(=O)c(C(=O)O)cn(C3CC3)c12 (stereo not shown) [Compound 39],no signs of any cytotoxicity,"Measured bacterial titer (Log CFU/g of bone) Test compound (S. aureus ATCC 13709; 20 mg/kg IV, 3 days prior to infection): 4.63 ± 0.39 Log CFU/g of bone; prophylactic effect in rat model of bone infection, in words (S. aureus ATCC 13709; Table 4 and FIGS. 6-8, doses as in Table 4): unable to produce a positive result in vivo; effect of the medium (presence or absence of serum) on regeneration rate [2]: fairly similar rates"
88.9,"COc1c(N2CCNC(C)C2)c(F)cc2c(=O)c(C(=O)OCC(=O)Nc3ccc(CC(P(=O)(O)O)P(=O)(O)O)cc3)cn(C3CC3)c12 (stereo not shown) [Compound 64, (4-(2,2-Bisphosphonoethyl)phenylcarbamoyl)methyl 7-(3-methylpiperazin-1-yl)-1-cyclopropyl-6-fluoro-1,4-dihydro-8-methoxy-4-oxoquinoline-3-carboxylate]",no signs of any cytotoxicity,effect of the medium (presence or absence of serum) on regeneration rate [2]: fairly similar rates
